# Laboratory results published in patent US9783536B2, “Nitrogen-containing heterocyclic compound or salt thereof” (FUJIFILM Corporation, priority 2013, dated 2017).
# Like-named read-outs stand apart in the source and are kept apart here.
# Assays:
# [1] = molecular target: T1, human PI3Kα protein (Homo sapiens, UniProt P42336); assay: PI3Kα enzyme assay (ADP-Glo); type: biochemical; details: read-out: PI3Kα enzyme inhibitory activity
# T1 construct: purchased Carna Biosciences, Inc; host or cells: baculovirus expression system
# In short: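 Biotinylated human PI3Kα (baculovirus-expressed, 4.5 nmol/L) pre-incubated 15 min with compound in Tris-HCl pH 7.5, MgCl2, BSA; reaction 60 min at 25° C with 50 μmol/L PIP2 and 100 μmol/L ATP final. ADP quantified by ADP-Glo luminescence; IC50 calculated.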
# [2] = molecular target: T2, GST fusion human ERK2 protein (Homo sapiens, UniProt P28482); assay: ERK2 enzyme assay (2); type: biochemical; details: read-out: ERK2 enzyme inhibitory activity (2)
# T2 construct: purchased Carna Biosciences, Inc; host or cells: E. coli expression system
# In short: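 GST-tagged human ERK2 expressed in E. coli (1.25 nmol/L) was preincubated with compound for 15 min at room temperature in pH 7.5 Hepes buffer with MgCl2, DTT and Brij35. Reaction with FL-Peptide 8 (final 4.25 μmol/L) and ATP (final 1 mmol/L) ran 120 min at 25 °C; EDTA stopped it, and phosphorylated peptide was quantified by mobility-shift separation to derive IC50.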
# T2 sequence (P28482 whole entry, the tested form may be a part): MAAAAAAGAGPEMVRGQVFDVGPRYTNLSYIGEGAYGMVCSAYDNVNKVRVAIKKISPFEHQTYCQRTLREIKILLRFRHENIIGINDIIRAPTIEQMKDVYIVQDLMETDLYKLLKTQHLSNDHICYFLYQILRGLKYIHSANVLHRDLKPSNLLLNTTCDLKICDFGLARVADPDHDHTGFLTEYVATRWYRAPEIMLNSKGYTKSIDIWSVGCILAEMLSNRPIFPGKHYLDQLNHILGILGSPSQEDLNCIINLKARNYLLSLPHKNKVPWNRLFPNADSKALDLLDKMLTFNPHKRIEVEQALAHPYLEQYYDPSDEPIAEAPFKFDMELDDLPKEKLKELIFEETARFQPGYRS
# T1 sequence (P42336 whole entry): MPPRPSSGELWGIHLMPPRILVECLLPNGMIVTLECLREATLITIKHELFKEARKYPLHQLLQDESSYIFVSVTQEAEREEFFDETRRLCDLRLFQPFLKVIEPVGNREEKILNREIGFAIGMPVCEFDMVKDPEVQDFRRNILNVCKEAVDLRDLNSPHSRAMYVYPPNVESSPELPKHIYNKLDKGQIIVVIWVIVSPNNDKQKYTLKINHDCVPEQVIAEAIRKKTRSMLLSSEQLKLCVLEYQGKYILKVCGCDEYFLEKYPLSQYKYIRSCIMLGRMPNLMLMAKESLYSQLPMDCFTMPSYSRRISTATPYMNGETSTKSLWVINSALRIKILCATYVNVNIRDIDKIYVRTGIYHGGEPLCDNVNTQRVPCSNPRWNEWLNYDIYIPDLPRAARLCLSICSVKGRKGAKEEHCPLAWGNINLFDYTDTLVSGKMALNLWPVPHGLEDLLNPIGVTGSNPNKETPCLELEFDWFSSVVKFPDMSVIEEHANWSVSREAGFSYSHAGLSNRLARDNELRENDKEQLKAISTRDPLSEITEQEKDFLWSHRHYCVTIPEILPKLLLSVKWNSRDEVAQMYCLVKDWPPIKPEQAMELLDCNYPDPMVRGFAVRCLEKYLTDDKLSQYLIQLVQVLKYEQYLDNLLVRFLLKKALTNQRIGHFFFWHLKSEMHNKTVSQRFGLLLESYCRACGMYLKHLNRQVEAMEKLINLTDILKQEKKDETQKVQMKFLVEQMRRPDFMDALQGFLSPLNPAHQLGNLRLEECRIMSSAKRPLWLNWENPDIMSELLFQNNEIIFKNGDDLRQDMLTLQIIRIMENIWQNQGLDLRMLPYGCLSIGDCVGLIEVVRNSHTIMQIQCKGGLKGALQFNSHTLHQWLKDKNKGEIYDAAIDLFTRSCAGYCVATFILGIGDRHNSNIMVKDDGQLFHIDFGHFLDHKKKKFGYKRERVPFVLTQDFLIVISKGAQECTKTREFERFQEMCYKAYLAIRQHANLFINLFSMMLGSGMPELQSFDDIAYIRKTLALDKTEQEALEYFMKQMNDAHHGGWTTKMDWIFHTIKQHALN
# T1 sequence (P27986 whole entry partner): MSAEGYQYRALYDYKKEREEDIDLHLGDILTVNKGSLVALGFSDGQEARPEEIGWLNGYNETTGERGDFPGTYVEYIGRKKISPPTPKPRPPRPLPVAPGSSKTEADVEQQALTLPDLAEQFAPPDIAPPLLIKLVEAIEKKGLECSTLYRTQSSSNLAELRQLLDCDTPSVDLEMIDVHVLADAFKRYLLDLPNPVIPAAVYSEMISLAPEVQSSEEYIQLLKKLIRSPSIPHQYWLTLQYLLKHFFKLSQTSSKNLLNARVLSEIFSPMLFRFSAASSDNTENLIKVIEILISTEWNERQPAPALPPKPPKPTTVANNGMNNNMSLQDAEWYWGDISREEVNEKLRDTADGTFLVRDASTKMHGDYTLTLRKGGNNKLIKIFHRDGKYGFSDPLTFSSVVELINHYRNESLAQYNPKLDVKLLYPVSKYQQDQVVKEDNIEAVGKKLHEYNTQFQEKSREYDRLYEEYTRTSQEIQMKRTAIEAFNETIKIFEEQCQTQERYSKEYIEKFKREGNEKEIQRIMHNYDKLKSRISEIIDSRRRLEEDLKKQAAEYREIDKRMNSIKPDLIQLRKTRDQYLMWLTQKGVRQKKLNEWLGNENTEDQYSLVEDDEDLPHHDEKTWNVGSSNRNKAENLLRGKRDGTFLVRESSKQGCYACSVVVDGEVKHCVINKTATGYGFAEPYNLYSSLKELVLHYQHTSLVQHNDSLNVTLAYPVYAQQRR
SMILES,IC50 [1],IC50 ([2]; ERK2 enzyme assay (2)),IC50 [2]
CC(C)c1cnnc(Nc2ccc3ncc(-c4cnn(CCCN(C)CC(=O)OC(C)(C)C)c4)cc3n2)c1 [Example 0661],< 1000 nM,< 1000 nM,–
CC(C)c1cnnc(Nc2ccc3ncc(-c4cn(C)nc4C(F)(F)F)cc3n2)c1 [Example 0634],< 1000 nM,< 1000 nM,–
CC(C)c1cnnc(Nc2ccc3ncc(-c4cnn(CCF)c4)cc3n2)c1 [Example 0466],< 1000 nM,< 1000 nM,–
CC(C)c1cnnc(Nc2ccc3ncc(N4CC5CC(C4)O5)cc3n2)c1 [Example 0902],< 1000 nM,–,< 1000 nM
Cc1nn(C)cc1-c1cnc2ccc(Nc3cc(C(C)(C)C)cnn3)nc2c1 [Example 0917],< 1000 nM,–,< 1000 nM
CC(C)NC(=O)N1CCC(Cn2cc(-c3cnc4ccc(Nc5cc(C(C)C)cnn5)nc4c3)cn2)CC1 [Example 0544],< 1000 nM,< 1000 nM,–
"CC(C)c1cnnc(Nc2ccc3ncc(-c4cnn(C)c4)c(-c4cccnc4)c3n2)c1 [Example 0954, N-(5-isopropylpyridazin-3-yl)-7-(1-methyl-1H-pyrazol-4-yl)-8-(pyridin-3-yl)-1,5-naphthyridine-2-amine]",< 1000 nM,–,< 1000 nM
"COC(CN1CC(F)(F)C1)Cn1cc(-c2cnc3ccc(Nc4cc(C(C)C)cnn4)nc3c2)cn1 (stereo not drawn) [Example 0814, 7-(1-(3-(3,3-difluoroazetidin-1-yl)-2-methoxypropyl)-1H-pyrazol-4-yl)-N-(5-isopropylpyridazin-3-yl)-1,5-naphthyridine-2-amine]",< 1000 nM,< 1000 nM,–
"CC(=O)N1CC(Cn2cc(-c3cnc4ccc(Nc5cc(C(C)C)cnn5)nc4c3)cn2)C1 [Example 0438, 1-(3-((4-(6-((5-isopropylpyridazin-3-yl)amino)-1,5-naphthyridin-3-yl)-1H-pyrazol-1-yl)methyl)azetidin-1-yl)ethanone]",< 1000 nM,< 1000 nM,–
CCN(CCO[Si](C)(C)C(C)(C)C)c1cnnc(Nc2ccc3ncc(-c4cnn(C)c4)cc3n2)c1 [Example 0524],10000 to 50000 nM,< 1000 nM,–
Cn1cc(-c2cnc3ccc(Nc4cc(C(C)(C)C)cnn4)nc3c2)cn1 [Example 0526],< 1000 nM,< 1000 nM,–
"CC(C)c1cnnc(Nc2ccc3ncc(C4=CCN(C(=O)OC(C)(C)C)C4)cc3n2)c1 [Example 0892, tert-butyl 3-(6-((5-isopropylpyridazin-3-yl)amino)-1,5-naphthyridin-3-yl)-2,5-dihydro-1H-pyrrole-1-carboxylate]",1000 to 10000 nM,1000 to 10000 nM,–
CC(C)c1cnnc(Nc2ccc3ncc(-c4cnn(C[C@H]5CC[C@H](O)CC5)c4)cc3n2)c1 [Example 0521],< 1000 nM,< 1000 nM,–
CC(C)c1cnnc(Nc2ccc3ncc(-c4cnn(C[C@H]5CCC(=O)N5C)c4)cc3n2)c1 [Example 0568],< 1000 nM,< 1000 nM,–
"CC(C)c1cnnc(Nc2ccc3ncc(-c4cnn(CCCN5CC6(CCO6)C5)c4)cc3n2)c1 [Example 0704, 7-(1-(3-(1-Oxa-6-azaspiro[3.3]heptan-6-yl)propyl)-1H-pyrazol-4-yl)-N-(5-isopropylpyridazin-3-yl)-1,5-naphthyridine-2-amine]",< 1000 nM,< 1000 nM,–
"COCCOC1CN(CCCn2cc(-c3cnc4ccc(Nc5cc(C(C)C)cnn5)nc4c3)cn2)C1 [Example 0718, N-(5-isopropylpyridazin-3-yl)-7-(1-(3-(3-(2-methoxyethoxy)azetidin-1-yl)propyl)-1H-pyrazol-4-yl)-1,5-naphthyridine-2-amine]",< 1000 nM,< 1000 nM,–
CCCc1cnnc(Nc2ccc3ncc(-c4cnn(C)c4)cc3n2)c1 [Example 0918],< 1000 nM,–,< 1000 nM
"CC(C)OC1CN(CCCn2cc(-c3cnc4ccc(Nc5cc(C(C)C)cnn5)nc4c3)cn2)C1 [Example 0710, 7-(1-(3-(3-Isopropoxyazetidin-1-yl)propyl)-1H-pyrazol-4-yl)-N-(5-isopropylpyridazin-3-yl)-1,5-naphthyridine-2-amine]",< 1000 nM,< 1000 nM,–
CC(C)Cc1cnnc(Nc2ccc3ncc(-c4cnn(C)c4)cc3n2)c1 [Example 0571],< 1000 nM,< 1000 nM,–
Cc1nn(C)cc1-c1cnc2ccc(Nc3cc(CC(C)C)cnn3)nc2c1 [Example 0790],< 1000 nM,< 1000 nM,–
CCc1nc(C)cn1-c1cnc2ccc(Nc3cc(C(C)C)cnn3)nc2c1 [Example 0514],1000 to 10000 nM,< 1000 nM,–
CC(C)c1cnnc(Nc2ccc3ncc(-c4cn(C)nc4N4CCOCC4)cc3n2)c1 [Example 0844],< 1000 nM,< 1000 nM,–
COC1(C)CN(CCCn2cc(-c3cnc4ccc(Nc5cc(C(C)C)cnn5)nc4c3)c(C)n2)C1 [Example 0797],< 1000 nM,< 1000 nM,–
"C=Cc1cnc2ccc(Nc3cc(C(C)C)cnn3)nc2c1 [Example 0638, N-(5-isopropylpyridazin-3-yl)-7-vinyl-1,5-naphthyridine-2-amine]",1000 to 10000 nM,< 1000 nM,–

SMILES,IC50 [1],IC50 ([2]; ERK2 enzyme assay (2)),IC50 [2]
CC(C)c1cnnc(Nc2ccc3ncc(C4=CCOCC4)cc3n2)c1 [Example 0580],< 1000 nM,< 1000 nM,–
CC(C)c1cnnc(Nc2ccc3nccc(-c4ccncc4)c3n2)c1 [Example 0410],< 1000 nM,< 1000 nM,–
"CC(C)c1cnnc(Nc2ccc3ncc(N(C)S(C)(=O)=O)cc3n2)c1 [Example 0841, N-(6-((5-isopropylpyridazin-3-yl)amino)-1,5-naphthyridin-3-yl)-N-methylmethane sulfonamide]",1000 to 10000 nM,1000 to 10000 nM,–
Cc1nn(C)cc1-c1cnc2ccc(Nc3cc(C4CCC4)cnn3)nc2c1 [Example 0791],< 1000 nM,< 1000 nM,–
CCOC(C)c1cnnc(Nc2ccc3ncc(-c4cnn(C)c4)cc3n2)c1 (stereo not drawn) [Example 0920],< 1000 nM,–,< 1000 nM
"CC(C)c1cnnc(Nc2ccc3ncc(N4CCC4)cc3n2)c1 [Example 0847, 7-(Azetidin-1-yl)-N-(5-isopropylpyridazin-3-yl)-1,5-naphthyridine-2-amine]",1000 to 10000 nM,< 1000 nM,–
CC(C)c1cnnc(Nc2ccc3ncc(-c4cnn(CCCCl)c4)cc3n2)c1 [Example 0468],< 1000 nM,< 1000 nM,–
CC(C)c1cnnc(Nc2ccc3ncc(-c4cnn(CCCN5CC[C@H](F)C5)c4)cc3n2)c1 [Example 0428],< 1000 nM,< 1000 nM,–
CC(C)c1cnnc(Nc2ccc3ncc(-c4cn(C)nc4COc4cccc(OCC(=O)N(C)C)c4)cc3n2)c1 [Example 0810],< 1000 nM,< 1000 nM,–
Cc1cncc(-c2cnc3ccc(Nc4cc(C(C)C)cnn4)nc3c2)c1 [Example 0598],1000 to 10000 nM,< 1000 nM,–
CCCn1cc(-c2cnc3ccc(Nc4cc(C(C)C)cnn4)nc3c2)cn1 [Example 0441],< 1000 nM,< 1000 nM,–
CC(=O)N1[C@H](C)CN(CCCn2cc(-c3cnc4ccc(Nc5cc(C(C)C)cnn5)nc4c3)cn2)C[C@@H]1C [Example 0435],< 1000 nM,< 1000 nM,–
COCCOC1CN(c2nn(C)cc2-c2cnc3ccc(Nc4cc(C(C)C)cnn4)nc3c2)C1 [Example 0933],< 1000 nM,–,< 1000 nM
CC(C)c1cnnc(Nc2ccc3ncc(N4CCS(=O)(=O)CC4)cc3n2)c1 [Example 0857],1000 to 10000 nM,< 1000 nM,–
CC(C)c1cnnc(Nc2ccc3ncc(-c4cn(C)nc4Cc4ccccc4)cc3n2)c1 [Example 0828],< 1000 nM,< 1000 nM,–
"CC(C)c1cnnc(Nc2ccc3ncc(-c4cn(C)nc4Cl)cc3n2)c1 [Example 0886, 7-(3-Chloro-1-methyl-1H-pyrazol-4-yl)-N-(5-isopropylpyridazin-3-yl)-1,5-naphthyridine-2-amine]",< 1000 nM,< 1000 nM,–
CC(C)c1cnnc(Nc2ccc3ncc(N4CCC(C(F)(F)F)C4)cc3n2)c1 (stereo not drawn) [Example 0896],1000 to 10000 nM,1000 to 10000 nM,–
"CC(C)c1cnnc(Nc2ccc3ncc(-c4cn(C)nc4Cc4cccnc4)cc3n2)c1 [Example 0824, N-(5-isopropylpyridazin-3-yl)-7-(1-methyl-3-(pyridin-3-ylmethyl)-1H-pyrazol-4-yl)-1,5-naphthyridine-2-amine]",< 1000 nM,< 1000 nM,–
"CC(C)c1cnnc(Nc2ccc3ncc(/C=C/c4ccncc4)cc3n2)c1 [Example 0652, (E)-N-(5-isopropylpyridazin-3-yl)-7-(2-(pyridin-4-yl)vinyl)-1,5-naphthyridine-2-amine]",< 1000 nM,< 1000 nM,–
"CC(C)c1cnnc(Nc2ccc3ncc(-c4cnn(C)c4)c(Cl)c3n2)c1 [Example 0952, 8-Chloro-N-(5-isopropylpyridazin-3-yl)-7-(1-methyl-1H-pyrazol-4-yl)-1,5-naphthyridine-2-amine]",< 1000 nM,–,< 1000 nM
CC(C)c1cnnc(Nc2ccc3ncc(-c4ccn(C)c(=O)c4)cc3n2)c1 [Example 0603],< 1000 nM,< 1000 nM,–
"CC(C)c1cnnc(Nc2ccc3ncc(-n4cnc(CCN(C)C)c4)cc3n2)c1 [Example 0503, 7-(4-(2-(Dimethylamino)ethyl)-1H-imidazol-1-yl)-N-(5-isopropylpyridazin-3-yl)-1,5-naphthyridine-2-amine]",< 1000 nM,< 1000 nM,–
CC(C)c1cnnc(Nc2ccc3ncc(-c4cn(C)nc4-c4ccccc4)cc3n2)c1 [Example 0579],< 1000 nM,< 1000 nM,–
CCC(CC)c1cnnc(Nc2ccc3ncc(-c4cnn(CCOC5CNC5)c4)cc3n2)c1 [Example 0816],< 1000 nM,< 1000 nM,–
